Results from the supplement of paper PMC10307832.

Columns and labels:
Test in all cases: relative viability (nuclei count vs DMSO), 5 days (fraction); higher = more cells survive
[1] = compound: C1=CC2=C(C=C(C(=C2N=C1)O)N=NC3=CC4=C(C=C3)C=C(C=C4)S(=O)(=O)O)S(=O)(=O)O + Cc1cc(Nc2cc(N3CCN(C)CC3)nc(Sc3ccc(NC(=O)C4CC4)cc3)n2)n[nH]1 [Tozasertib] (partner 0.1 µM)
How it was run: (§1)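 Dosing by pin tool came one day after lung cancer cell lines were seeded in 1536-well plates, using either one drug or a fixed anchor-drug dose plus five library-drug doses (not always all listed) in √10 steps. After 5 days, nuclei were counted on 4× images. Relative viability is treated-well nuclei count divided by vehicle-well nuclei count, and values are medians of duplicate plates.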

[2] = compound: C1=CC2=C(C=C(C(=C2N=C1)O)N=NC3=CC4=C(C=C3)C=C(C=C4)S(=O)(=O)O)S(=O)(=O)O + NC(=O)Nc1cc(-c2cccc(F)c2)sc1C(=O)N[C@H]1CCCNC1 [AZD7762] (partner 0.2 µM)
How it was run: as §1

[3] = compound: C1=CC2=C(C=C(C(=C2N=C1)O)N=NC3=CC4=C(C=C3)C=C(C=C4)S(=O)(=O)O)S(=O)(=O)O + Nc1nc2[nH]cc(CCc3ccc(C(=O)N[C@@H](CCC(=O)O)C(=O)O)cc3)c2c(=O)[nH]1 [Pemetrexed] (partner 0.2 µM)
How it was run: as §1

AT-7519 + Phenformin = compound: O=C(NC1CCNCC1)c1n[nH]cc1NC(=O)c1c(Cl)cccc1Cl [AT-7519] + N=C(N)NC(=N)NCCc1ccccc1 [Phenformin] (partner 250 µM)
How it was run: as §1

Cell Line: NCI-H647
- relative viability ([1]; first compound 0.08 µM): 0.49
- relative viability ([1]; first compound 0.253 µM): 0.279
- relative viability ([1]; first compound 0.8 µM): 0.308
- relative viability ([1]; first compound 2.53 µM): 0.231
- relative viability ([1]; first compound 8 µM): 0.267
- relative viability ([2]; first compound 0.08 µM): 0.473
- relative viability ([2]; first compound 0.253 µM): 0.321
- relative viability ([2]; first compound 0.8 µM): 0.513
- relative viability ([2]; first compound 2.53 µM): 0.471
- relative viability ([2]; first compound 8 µM): 0.345
- relative viability ([3]; first compound 0.08 µM): 0.174
- relative viability ([3]; first compound 0.253 µM): 0.189
- relative viability ([3]; first compound 0.8 µM): 0.182
- relative viability ([3]; first compound 2.53 µM): 0.183
- relative viability ([3]; first compound 8 µM): 0.168
- relative viability (AT-7519 + Phenformin; first compound 0.01 µM): 0.619
- relative viability (AT-7519 + Phenformin; first compound 0.03162 µM): 0.529
- relative viability (AT-7519 + Phenformin; first compound 0.3162 µM): 0.335
- relative viability (AT-7519 + Phenformin; first compound 1 µM): 0.281

Cell Line: NCI-H650
- relative viability ([1]; first compound 0.08 µM): 0.703
- relative viability ([1]; first compound 0.253 µM): 0.671
- relative viability ([1]; first compound 0.8 µM): 0.749
- relative viability ([1]; first compound 2.53 µM): 0.737
- relative viability ([1]; first compound 8 µM): 0.79
- relative viability ([2]; first compound 0.08 µM): 0.872
- relative viability ([2]; first compound 0.253 µM): 0.996
- relative viability ([2]; first compound 0.8 µM): 0.967
- relative viability ([2]; first compound 2.53 µM): 0.922
- relative viability ([2]; first compound 8 µM): 0.998
- relative viability ([3]; first compound 0.08 µM): 1.04
- relative viability ([3]; first compound 0.253 µM): 0.922
- relative viability ([3]; first compound 0.8 µM): 0.956
- relative viability ([3]; first compound 2.53 µM): 0.936
- relative viability ([3]; first compound 8 µM): 0.791
- relative viability (AT-7519 + Phenformin; first compound 0.01 µM): 0.492
- relative viability (AT-7519 + Phenformin; first compound 0.03162 µM): 0.465
- relative viability (AT-7519 + Phenformin; first compound 0.3162 µM): 0.49
- relative viability (AT-7519 + Phenformin; first compound 1 µM): 0.421

Cell Line: NCI-H838
- relative viability ([1]; first compound 0.08 µM): 0.238
- relative viability ([1]; first compound 0.253 µM): 0.214
- relative viability ([1]; first compound 0.8 µM): 0.272
- relative viability ([1]; first compound 2.53 µM): 0.285
- relative viability ([1]; first compound 8 µM): 0.266
- relative viability ([2]; first compound 0.08 µM): 1.01
- relative viability ([2]; first compound 0.253 µM): 0.882
- relative viability ([2]; first compound 0.8 µM): 0.89
- relative viability ([2]; first compound 2.53 µM): 0.965
- relative viability ([2]; first compound 8 µM): 0.882
- relative viability ([3]; first compound 0.08 µM): 0.264
- relative viability ([3]; first compound 0.253 µM): 0.251
- relative viability ([3]; first compound 0.8 µM): 0.235
- relative viability ([3]; first compound 2.53 µM): 0.234
- relative viability ([3]; first compound 8 µM): 0.246
- relative viability (AT-7519 + Phenformin; first compound 0.01 µM): 0.534
- relative viability (AT-7519 + Phenformin; first compound 0.03162 µM): 0.552
- relative viability (AT-7519 + Phenformin; first compound 0.3162 µM): 0.247
- relative viability (AT-7519 + Phenformin; first compound 1 µM): 0.0953

Cell Line: NCI-H1355
- relative viability ([1]; first compound 0.08 µM): 0.629
- relative viability ([1]; first compound 0.253 µM): 0.608
- relative viability ([1]; first compound 0.8 µM): 0.627
- relative viability ([1]; first compound 2.53 µM): 0.595
- relative viability ([1]; first compound 8 µM): 0.641
- relative viability ([2]; first compound 0.08 µM): 0.801
- relative viability ([2]; first compound 0.253 µM): 0.726
- relative viability ([2]; first compound 0.8 µM): 0.723
- relative viability ([2]; first compound 2.53 µM): 0.824
- relative viability ([2]; first compound 8 µM): 0.64
- relative viability ([3]; first compound 0.08 µM): 1.13
- relative viability ([3]; first compound 0.253 µM): 1.05
- relative viability ([3]; first compound 0.8 µM): 1.02
- relative viability ([3]; first compound 2.53 µM): 1.1
- relative viability ([3]; first compound 8 µM): 0.872
- relative viability (AT-7519 + Phenformin; first compound 0.01 µM): 0.455
- relative viability (AT-7519 + Phenformin; first compound 0.03162 µM): 0.461
- relative viability (AT-7519 + Phenformin; first compound 0.3162 µM): 0.371
- relative viability (AT-7519 + Phenformin; first compound 1 µM): 0.458

Cell Line: NCI-H1395
- relative viability ([1]; first compound 0.08 µM): 0.788
- relative viability ([1]; first compound 0.253 µM): 0.739
- relative viability ([1]; first compound 0.8 µM): 0.695
- relative viability ([1]; first compound 2.53 µM): 0.745
- relative viability ([1]; first compound 8 µM): 0.772
- relative viability ([2]; first compound 0.08 µM): 0.383
- relative viability ([2]; first compound 0.253 µM): 0.404
- relative viability ([2]; first compound 0.8 µM): 0.395
- relative viability ([2]; first compound 2.53 µM): 0.411
- relative viability ([2]; first compound 8 µM): 0.358
- relative viability ([3]; first compound 0.08 µM): 0.814
- relative viability ([3]; first compound 0.253 µM): 0.816
- relative viability ([3]; first compound 0.8 µM): 0.68
- relative viability ([3]; first compound 2.53 µM): 0.763
- relative viability ([3]; first compound 8 µM): 0.782
- relative viability (AT-7519 + Phenformin; first compound 0.01 µM): 0.463
- relative viability (AT-7519 + Phenformin; first compound 0.03162 µM): 0.518
- relative viability (AT-7519 + Phenformin; first compound 0.3162 µM): 0.443
- relative viability (AT-7519 + Phenformin; first compound 1 µM): 0.407

Cell Line: NCI-H1437
- relative viability ([1]; first compound 0.08 µM): 0.421
- relative viability ([1]; first compound 0.253 µM): 0.392
- relative viability ([1]; first compound 0.8 µM): 0.407
- relative viability ([1]; first compound 2.53 µM): 0.408
- relative viability ([1]; first compound 8 µM): 0.287
- relative viability ([2]; first compound 0.08 µM): 1.11
- relative viability ([2]; first compound 0.253 µM): 1.11
- relative viability ([2]; first compound 0.8 µM): 1.1
- relative viability ([2]; first compound 2.53 µM): 1.2
- relative viability ([2]; first compound 8 µM): 1.08
- relative viability ([3]; first compound 0.08 µM): 0.299
- relative viability ([3]; first compound 0.253 µM): 0.326
- relative viability ([3]; first compound 0.8 µM): 0.334
- relative viability ([3]; first compound 2.53 µM): 0.265
- relative viability ([3]; first compound 8 µM): 0.308
- relative viability (AT-7519 + Phenformin; first compound 0.01 µM): 0.322
- relative viability (AT-7519 + Phenformin; first compound 0.03162 µM): 0.328
- relative viability (AT-7519 + Phenformin; first compound 0.3162 µM): 0.292
- relative viability (AT-7519 + Phenformin; first compound 1 µM): 0.194

Cell Line: NCI-H1651
- relative viability ([1]; first compound 0.08 µM): 0.742
- relative viability ([1]; first compound 0.253 µM): 0.727
- relative viability ([1]; first compound 0.8 µM): 0.657
- relative viability ([1]; first compound 2.53 µM): 0.764
- relative viability ([1]; first compound 8 µM): 0.562
- relative viability ([2]; first compound 0.08 µM): 0.501
- relative viability ([2]; first compound 0.253 µM): 0.49
- relative viability ([2]; first compound 0.8 µM): 0.474
- relative viability ([2]; first compound 2.53 µM): 0.489
- relative viability ([2]; first compound 8 µM): 0.437
- relative viability ([3]; first compound 0.08 µM): 0.678
- relative viability ([3]; first compound 0.253 µM): 0.534
- relative viability ([3]; first compound 0.8 µM): 0.601
- relative viability ([3]; first compound 2.53 µM): 0.609
- relative viability ([3]; first compound 8 µM): 0.54
- relative viability (AT-7519 + Phenformin; first compound 0.01 µM): 0.298
- relative viability (AT-7519 + Phenformin; first compound 0.03162 µM): 0.344
- relative viability (AT-7519 + Phenformin; first compound 0.3162 µM): 0.36
- relative viability (AT-7519 + Phenformin; first compound 1 µM): 0.325

Cell Line: NCI-H1666
- relative viability ([1]; first compound 0.08 µM): 0.621
- relative viability ([1]; first compound 0.253 µM): 0.628
- relative viability ([1]; first compound 0.8 µM): 0.609
- relative viability ([1]; first compound 2.53 µM): 0.657
- relative viability ([1]; first compound 8 µM): 0.434
- relative viability ([2]; first compound 0.08 µM): 0.868
- relative viability ([2]; first compound 0.253 µM): 0.798
- relative viability ([2]; first compound 0.8 µM): 0.787
- relative viability ([2]; first compound 2.53 µM): 0.802
- relative viability ([2]; first compound 8 µM): 0.771
- relative viability ([3]; first compound 0.08 µM): 0.824
- relative viability ([3]; first compound 0.253 µM): 0.85
- relative viability ([3]; first compound 0.8 µM): 0.827
- relative viability ([3]; first compound 2.53 µM): 0.891
- relative viability ([3]; first compound 8 µM): 0.892
- relative viability (AT-7519 + Phenformin; first compound 0.01 µM): 0.59
- relative viability (AT-7519 + Phenformin; first compound 0.03162 µM): 0.568
- relative viability (AT-7519 + Phenformin; first compound 0.3162 µM): 0.538
- relative viability (AT-7519 + Phenformin; first compound 1 µM): 0.402
